Legend:
[1] = system: auxin herbicide sensitive Eurasian milfoil biotype; settings: Eurasian milfoil biotype (A), 6 weeks following applications of various rates, FIG. 2; cited from earlier work
[2] = system: hybrid milfoil population; settings: hybrid milfoil population (B), 6 weeks following applications of various rates, FIG. 2; cited from earlier work
[3] = system: tolerant hybrid milfoil lineage from an Upper Midwest US lake; experiment: 14-day laboratory apical tissue assay, fluridone herbicide response (beta-carotene); assay type: in vivo, hybrid (Northern×Eurasian) watermilfoil; settings: 14-day apical tissue assay, various rates of fluridone, compared with the susceptible reference Eurasian milfoil lineage (EWM), n=4, FIG. 3
Description: FIG. 3 depicts fluridone herbicide response of a tolerant hybrid milfoil lineage from an Upper Midwest US lake compared to response of a susceptible reference Eurasian milfoil lineage (EWM) in a 14-day laboratory apical tissue assay. […] Error bars are +1 standard deviation (n=4).

Row | Molecule | response in aboveground biomass (sensitivity/tolerance) [1] | response in aboveground biomass (sensitivity/tolerance) [2] | beta-carotene reduction [3]
1 | O=C(O)COc1ccc(Cl)cc1Cl [2,4-d, 2,4-dichlorophenoxyacetic acid] | sensitive | displaying auxin tolerance | –
2 | O=C(O)COc1nc(Cl)c(Cl)cc1Cl [triclopyr] | sensitive | displaying auxin tolerance | –
3 | fluridone | – | – | less beta-carotene reduction for the tolerant hybrid lineage versus the reference Eurasian lineage
